“And” between values parts separate entries of the source, which are not always exact repeats. Identical values can stand only once. Blank lines part the entries; values can stand above or below the molecule they belong to. Where no end group is shown, it is not given here.
Tests used:
[1] = target: T1, hSIRT1-143 (Homo sapiens, UniProt Q96EB6); test: Enzyme-coupled continuous SIRT1 deacetylase kinetics assay (Michaelis-Menten); format: biochemical; settings: for K M / k cat / k cat/K M: peptide as substrate, without resveratrol
T1 construct: Schematic of SIRT1-143 design, consisting of residues 143–512 and the region 641–665; SUMO (smt3) (N, cleaved yes); His tag (N, cleaved yes); made in house; host or cells: E. coli BL21 (DE3)
T1 sequence (Q96EB6 143-512 limits assumed): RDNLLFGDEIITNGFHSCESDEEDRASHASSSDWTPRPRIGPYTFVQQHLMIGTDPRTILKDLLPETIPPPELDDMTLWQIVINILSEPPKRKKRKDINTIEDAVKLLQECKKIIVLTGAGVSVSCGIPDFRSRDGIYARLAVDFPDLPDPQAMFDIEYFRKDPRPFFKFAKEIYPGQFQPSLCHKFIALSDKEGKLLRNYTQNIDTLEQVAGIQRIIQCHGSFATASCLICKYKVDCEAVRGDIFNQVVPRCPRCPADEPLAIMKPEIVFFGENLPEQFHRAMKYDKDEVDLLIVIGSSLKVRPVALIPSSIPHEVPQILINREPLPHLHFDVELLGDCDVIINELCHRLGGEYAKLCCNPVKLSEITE
T1 sequence (Q96EB6 641-665 limits assumed): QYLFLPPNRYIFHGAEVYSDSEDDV
Protocol: Assays were conducted in accordance with a prior publication ([Smith et al., 2009]). Peptide substrates were 11 or 13-mer peptides with acetylated lysine at the middle residue position, synthesized and purified by Elim BioPharm (Hayward, CA) to a purity of 90%. The following reagents were used in the assay mixtures: 5–640 μM peptide substrate, 640 μM NAD^+, 2 mM MPB-PncA (nicotinamidase), 20 mM phosphate buffer pH 7.6, 3 mM α-ketoglutarate, 1 mM DTT, 0.2 mM NADPH, and 6.7 units of glutamate dehydrogenase. Then, 0.2–1 μM of the SIRT1 enzyme was added to start the reactions. SIRT1 reactions were conducted in a transparent, flat-bottomed, 96-well plate with a final volume of 150 μL per well and read with a BioTek™ Synergy HTX Multimode Reader. […] After SIRT1 was added, absorbance at 340 nm was measured to quantify the rate of NADPH depletion for a duration of 10 min. Initial rates of the reaction were calculated using 6.22 mM^-1cm^-1 as the extinction coefficient for NADPH and fitting the slope of the linear component of the reaction. The initial velocity of the reaction absent the peptide substrate, which served as a background control, was subtracted from the initial velocities of all other reactions. By fitting the initial rate data to the Michaelis-Menten equation in GraphPad Prism, the values for k cat and K M were obtained.

[2] = target: T1, hSIRT1-143; test: Differential scanning fluorimetry (SYPRO Orange) thermal stability of SIRT1 complexes; format: binding; settings: 200 μM resveratrol
Protocol: Differential Scanning Fluorimetry experiments were performed in a 384-well plate using a qTOWER real-time PCR thermal cycler (Analytik Jena). Fluorescence intensity was measured in the TAMRA channel (Ex: 535 nm Em: 580 nm) over a period of 1 h with a 1°C increase temperature ramp per cycle in “Normal” mode. […] 1:100 SYPRO® Orange (Millipore) dye diluted in buffer was also added to each well. All measurements were performed in triplicate, with buffer-only controls containing ADPr, resveratrol, and peptide performed for all conditions. Tma was calculated using the first derivative method and fitting a Lorentzian distribution to the first derivative curve (Tma = center of curve/inflection point) in GraphPad Prism ([Wu et al., 2020]).

[3] = target: T1, hSIRT1-143; test: Small angle X-ray scattering (SAXS) of SIRT1 complexes; settings: for Rg / Rxs: + 200 μM resveratrol; for Δ Rg / Δ Rxs: + vs - 200 μM resveratrol; as to Rg: values in Å; as to Rxs: values in Å
Protocol: SAXS samples were prepared with 40 μM of hSIRT1-143 in storage buffer (50 mM Tris pH 8.0, 150 mM NaCl, 1 mM DTT). All samples contained 640 μM of NAD^+ analog ADPr (adenosine diphosphate ribose) except for the apo SIRT1 sample. Varying concentrations of different peptide substrates (500–5,000 μM) were added to the different samples. The concentration of peptide substrate added was determined based on previous kinetics assays to ensure that SIRT1 is mostly saturated with the peptide.
With an X-ray wavelength of 1.216 Å and a sample-to-detector distance of 2070 mm, the scattering vector, q, varied from 0.01 to 0.45. Where 2θ is the scattering angle, the scattering vector is defined as q = 4π sin θ/λ. The experiments were conducted at a temperature of 20°C. The sample was placed for 10 s with the detector framing at 0.3 s to optimize the signal using the SAXS FrameSlice program (https://bl1231.als.lbl.gov/ran). ATSAS 3.0 Primus software was utilized to plot and analyze the combined SAXS ([Manalastas-Cantos et al., 2021]).

[4] = target: T1, hSIRT1-143; test: Differential scanning fluorimetry (SYPRO Orange) thermal stability of SIRT1 complexes; format: binding; settings: SIRT1•ADPr•Ac-H3; 200 μM resveratrol; single data set
[5] = towards Ac-p53W, 200 μM resveratrol

Molecule: Oc1ccc(/C=C/c2cc(O)cc(O)c2)cc1 [resveratrol]
increases in K M ([1]; towards Ac-p53, Ac-H4, Ac-H3 and Ac-CSNK, 200 μM resveratrol): 2-6 fold | decrease in K M [1, 5]: 2 fold | increase of overall SIRT1 activity (k cat/K M) [1, 5]: 2 fold | effect on k cat values ([1]; towards any of the peptide substrates, 200 μM resveratrol): did not have significant effects | decrease of Tma ([2]; SIRT1 in complex with ADPr): 0.2 °C | decrease of melting temperature ([2]; SIRT1•ADPR•Ac-p53W complex): 1 °C | Tma + res ([2]; SIRT1•ADPr): 49.9 ± 0.44 °C | Tma + res ([2]; SIRT1•ADPr•Ac-CSNK): 46.0 ± 0.94 °C | Tma + res ([2]; SIRT1•ADPr•Ac-H4): 46.5 ± 1.49 °C | Tma + res ([2]; SIRT1•ADPr•Ac-p53): 48.2 ± 0.54 °C | Tma + res ([2]; SIRT1•ADPr•Ac-p53W): 49.5 ± 0.46 °C | Tma + res ([2]; apo SIRT1): 49.4 ± 0.48 °C | decrease of Tma ([2]; apo SIRT1): 1.7 °C | Rg ([3]; SIRT1•ADPr): 35.45 Å | Rxs ([3]; SIRT1•ADPr): 14.19 Å | Δ Rg ([3]; SIRT1•ADPr): 1.7% | Δ Rxs ([3]; SIRT1•ADPr): 39.9% | Rg ([3]; SIRT1•ADPr•Ac-CSNK): 33.87 Å | Rxs ([3]; SIRT1•ADPr•Ac-CSNK): 12.67 Å | Δ Rg ([3]; SIRT1•ADPr•Ac-CSNK): 4.9% | Rg ([3]; SIRT1•ADPr•Ac-H3): 35.94 Å | Rxs ([3]; SIRT1•ADPr•Ac-H3): 12.42 Å | Δ Rg ([3]; SIRT1•ADPr•Ac-H3): 3.1% | Rg ([3]; SIRT1•ADPr•Ac-H4): 36.99 Å | Rxs ([3]; SIRT1•ADPr•Ac-H4): 13.7 Å | Δ Rg ([3]; SIRT1•ADPr•Ac-H4): 7.3% | Rg ([3]; SIRT1•ADPr•Ac-p53): 34.92 Å | Rxs ([3]; SIRT1•ADPr•Ac-p53): 14.37 Å | Δ Rg ([3]; SIRT1•ADPr•Ac-p53): 9.2% | Rg ([3]; SIRT1•ADPr•Ac-p53W): 36.91 Å | Rxs ([3]; SIRT1•ADPr•Ac-p53W): 13.86 Å | Δ Rg ([3]; SIRT1•ADPr•Ac-p53W): 9% and 8.9% | Δ Rxs ([3]; SIRT1•ADPr•Ac-p53W): 7% and 6.9% | Rg ([3]; apo SIRT1): 32.26 Å | Rxs ([3]; apo SIRT1): 11.26 Å | Δ Rg ([3]; apo SIRT1): 6.3% | Δ Rxs ([3]; apo SIRT1): 9.7% | Tma + res [4]: 46.3 ± 0.55 °C

Molecule: ^3VRGKAGK^AcGLGKGG^15 [Ac-H4]
K M [1]: 108 ± 5.5 µM | k cat [1]: 0.09 ± 0.006 s⁻¹ | k cat/K M [1]: 1000 ± 400 M⁻¹ s⁻¹

Molecule: ^9KSTGGK^AcAPRKQ^19 [Ac-H3]
K M [1]: 121 ± 12.6 µM | k cat [1]: 0.06 ± 0.009 s⁻¹ | k cat/K M [1]: 500 ± 300 M⁻¹ s⁻¹

Other lines, results leading:

K M [1]: 78 ± 2.2 µM | k cat [1]: 0.06 ± 0.002 s⁻¹ | k cat/K M [1]: 700 ± 200 M⁻¹ s⁻¹
Molecule: ^2ASSSGSK^AcAEFIVG^14 (ASSSGSK(Ac)AEFIVG; UniProt P48729 2-14, looked up, fragment) [Ac-CSNK, 13-mer SIRT1 peptide substrate with acetylated lysine, casein kinase 1 alpha 1 (K8)]

K M [1]: 25 ± 0.2 µM | k cat [1]: 0.08 ± 0.009 s⁻¹ | k cat/K M [1]: 3000 ± 30 M⁻¹ s⁻¹
Molecule: ^376STSRHKK^AcLMFKTE^388 (STSRHKK(Ac)LMFKTE; UniProt P04637 376-388, looked up, fragment) [Ac-p53, 13-mer SIRT1 peptide substrate with acetylated lysine, p53(K382)]

K M [1]: 13 ± 1.4 µM | k cat [1]: 0.06 ± 0.001 s⁻¹ | k cat/K M [1]: 5000 ± 500 M⁻¹ s⁻¹
Molecule: ^376STSRHKK^AcWMFKTE^389 [Ac-p53W]

From publication PMC10499324, “The differing effects of a dual acting regulator on SIRT1” (Frontiers in Molecular Biosciences, 2023)
